# System: B. kaoi adventitious roots
# Assay: cDNA microarray of MeJA-responsive genes in adventitious roots
# Type: cell-based, Bupleurum kaoi
# Settings: 500 μM MeJA; microarray analysis
# Experimental: Adventitious root cultures were induced from the roots of germ-free seedlings of B. kaoi and were subcultured every 6 weeks by adding 0.2 g roots to a 125 ml flask containing 50 ml of B5 liquid medium supplemented with 2 mg 1^−1 NAA. Cultures were shaken using a rotary shaker at 100 rpm at 25° C. in the dark. To quantify the effect of MeJA on saikosaponin level, adventitious roots were treated with 500 and 1000 μM MeJA 2 weeks after subculture. Total saikosaponin was measured 2 weeks after MeJA treatment. To monitor expression of MeJA-responsive genes, the nutrient medium was refreshed 4 weeks after subculture and MeJA (500 μM) was applied 2 weeks after refreshment. Roots were harvested at 13 time points (5 min; 1, 2, 8, 24 hours; 2, 4, 6, 8 days; 2, 3, 4, 5 weeks) after the addition of the MeJA. […]
# The DNA microarray data were imported into GeneSpring 7.2 (Silicon Genetics) for further analyses. […] The coefficient of variation was calculated by dividing the standard deviation by the mean. Net intensities of both channels were calculated by subtraction of the median fluorescent intensity of the background from the mean fluorescent intensity of each feature. […] Fold change was calculated for each gene by dividing the average intensity of MeJA-treated samples by the average intensity of the corresponding control samples. […]
smiles,measurement,value
"CC/C=C\CC1C(=O)CCC1CC(=O)OC (stereo not shown) [MeJA, Methyl jasmonate]","Two BkP450 genes (AM421810, AM421812) increase",2 fold

# From US8222487B2, “Application of ERF genes from Bupleurum kaoi” (National Tsing Hua University, priority 2009, dated 2012)
